Results taken from ChEMBL document CHEMBL1122370 (J Med Chem, 1983).

Tests used:
L1210 [1] = assay: In vivo antitumor activity against L1210 leukemia in 5 mice measured as median survival range at 40 mg/kg; Value ranges from(13-19).; type: functional, Mus musculus
L1210 [2] = assay: In vivo antitumor activity against L1210 leukemia in 15 mice measured as T/C values(days); T/C = 15/9; type: functional, Mus musculus
Mus musculus [3] = assay: Average weight of the mouse after treating with 80 mg/kg dose for 1 day.; type: functional; set-up: unit not given here
L1210 [4] = assay: In vivo antitumor activity against L1210 leukemia in 5 mice measured as Increased life span at 20 mg/kg.; type: functional; settings: Mus musculus
Mus musculus [5] = assay: Average weight of the mouse after treating with 20 mg/kg dose for 7 days.; type: functional; set-up: unit not given beside the values
Mus musculus [6] = assay: Average weight of the mouse after treating with 80 mg/kg dose for 7 days.; type: functional; set-up: unit not given beside the values
Mus musculus [7] = assay: Average weight of the mouse after treating with 40 mg/kg dose for 1 day.; type: functional; set-up: unit not given here
L1210 [8] = assay: In vivo antitumor activity against L1210 leukemia in 5 mice measured as Increased life span at 80 mg/kg.; type: functional; settings: Mus musculus
L1210 [9] = assay: In vivo antitumor activity against L1210 leukemia in 18 mice measured as T/C values(days); T/C = 18/9; type: functional, Mus musculus
Mus musculus [10] = assay: Average weight of the mouse after treating with 40 mg/kg dose for 7 days.; type: functional; set-up: unit not given beside the values
L1210 [11] = assay: In vivo antitumor activity against L1210 leukemia in 5 mice measured as median survival range at 20 mg/kg; Value ranges from(12-13); type: functional, Mus musculus
Mus musculus [12] = assay: Average weight of the mouse after treating with 20 mg/kg dose for 1 day.; type: functional; set-up: unit not given here
L1210 [13] = assay: In vivo antitumor activity against L1210 leukemia in 5 mice measured as Increased life span at 40 mg/kg.; type: functional; settings: Mus musculus
L1210 [14] = assay: In vivo antitumor activity against L1210 leukemia in 13 mice measured as T/C values(days); T/C = 13/9; type: functional, Mus musculus
L1210 [15] = assay: In vivo antitumor activity against L1210 leukemia in 5 mice measured as median survival range at 80 mg/kg; Value ranges from(13-26).; type: functional, Mus musculus
L1210 [16] = assay: In vivo antitumor activity against L1210 leukemia in 5 mice measured as median survival range at 40 mg/kg; Value ranges from(12-18); type: functional, Mus musculus
L1210 [17] = assay: In vivo antitumor activity against L1210 leukemia in 19 mice measured as T/C values(days); T/C = 19/9; type: functional, Mus musculus
L1210 [18] = assay: In vivo antitumor activity against L1210 leukemia in 5 mice measured as median survival range at 80 mg/kg; Value ranges from(12-23).; type: functional, Mus musculus
L1210 [19] = assay: In vivo anti tumor activity against L1210 leukemia in 5 mice measured as Increased life span at 7.5 mg/kg; type: functional; settings: Mus musculus
Mus musculus [20] = assay: Average weight of the mouse after treating with 15 mg/kg dose for 1 day; type: functional
L1210 [21] = assay: In vivo antitumor activity against L1210 leukemia in 5 mice measured as median survival range at 15 mg/kg; Value ranges from (14-18); type: functional, Mus musculus
L1210 [22] = assay: In vivo anti tumor activity against L1210 leukemia in 5 mice measured as Increased life span at 15 mg/kg; type: functional; settings: Mus musculus
Mus musculus [23] = assay: Average weight change in mouse after treating with 7.5 mg/kg dose for 7 days.; type: functional
L1210 [24] = assay: In vivo antitumor activity against L1210 leukemia in 5 mice measured as median survival range at 7.5 mg/kg; Value ranges from (10-14); type: functional, Mus musculus
Mus musculus [25] = assay: In vivo antitumor activity against L1210 leukemia in 5 mice measured as weight change in 7 days(% weight); type: functional
Mus musculus [26] = assay: Average weight of the mouse after treating with 7.5 mg/kg dose for 1 day; type: functional
L1210 [27] = assay: In vivo antitumor activity against L1210 leukemia in 18 mice measured as T/C values(days); T/C = 18/11; type: functional, Mus musculus
Mus musculus [28] = assay: Average weight of the mouse after treating with 45 mg/kg dose for 7 days.; type: functional
Mus musculus [29] = assay: Average weight of the mouse after treating with 90 mg/kg dose for 1 day.; type: functional
L1210 [30] = assay: In vivo antitumor activity against L1210 leukemia in 5 mice measured as Increased life span at 90 mg/kg.; type: functional; settings: Mus musculus
Mus musculus [31] = assay: Average weight of the mouse after treating with 90 mg/kg dose for 7 days.; type: functional
L1210 [32] = assay: In vivo antitumor activity against L1210 leukemia in 5 mice measured as Increased life span at 45 mg/kg.; type: functional; settings: Mus musculus
L1210 [33] = assay: In vivo antitumor activity against L1210 leukemia in 5 mice measured as median survival range at 90 mg/kg; Value ranges from(15-24); type: functional, Mus musculus
L1210 [34] = assay: In vivo antitumor activity against L1210 leukemia in 20 mice measured as T/C values(days); T/C = 20/11; type: functional, Mus musculus
L1210 [35] = assay: In vivo antitumor activity against L1210 leukemia in 5 mice measured as median survival range at 45 mg/kg; Value ranges from(14-19); type: functional, Mus musculus
Mus musculus [36] = assay: Average weight of the mouse after treating with 45 mg/kg dose for 1 day.; type: functional
Mus musculus [37] = assay: Average weight change in mouse after treating with 40 mg/kg dose for 7 days.; type: functional
L1210 [38] = assay: In vivo anti tumor activity against L1210 leukemia in 5 mice measured as Increased life span at 20 mg/kg.; type: functional; settings: Mus musculus
L1210 [39] = assay: In vivo anti tumor activity against L1210 leukemia in 13 mice measured as T/C values at 20 mg/kg; T/C = 13/9; type: functional, Mus musculus
L1210 [40] = assay: In vivo antitumor activity against L1210 leukemia in 5 mice measured as median survival range at 20 mg/kg; Value ranges from (11-17); type: functional, Mus musculus
L1210 [41] = assay: In vivo anti tumor activity against L1210 leukemia in 19 mice measured as T/C values; T/C = 19/9; type: functional, Mus musculus
L1210 [42] = assay: In vivo antitumor activity against L1210 leukemia in 5 mice measured as median survival range at 40 mg/kg; Value ranges from (16-19); type: functional, Mus musculus
Mus musculus [43] = assay: Average weight change in mouse after treating with 20 mg/kg dose for 7 days.; type: functional; set-up: unit not given beside the values
L1210 [44] = assay: In vivo anti tumor activity against L1210 leukemia in 5 mice measured as Increased life span at 40 mg/kg.; type: functional; settings: Mus musculus

Question: Which results are given for `CC(C)CCOC(=O)CCC(NC(=O)c1cc(Cl)c(N(C)Cc2cnc3nc(N)nc(N)c3n2)c(Cl)c1)C(=O)OCCC(C)C` (stereo not drawn)?
Answer: Range (L1210 [1]): 19; T/C (L1210 [2]): 9; Average weight (Mus musculus [3]): 20.8; ILS at 20 mg/kg (L1210 [4]): 44%; Weight change (Mus musculus [5]): 2.7; Weight change (Mus musculus [6]): 1; Average weight (Mus musculus [7]): 21.2; ILS at 80 mg/kg (L1210 [8]): 100%; T/C (L1210 [9]): 9; Weight change (Mus musculus [10]): 0.1; Range (L1210 [11]): 13; Average weight (Mus musculus [12]): 22.1; ILS at 40 mg/kg (L1210 [13]): 67%; T/C (L1210 [14]): 9; Range (L1210 [15]): 26

Question: How did the Average weight (Mus musculus [3]) turn out when `CC(C)COC(=O)CCC(NC(=O)c1cc(Cl)c(N(C)Cc2cnc3nc(N)nc(N)c3n2)c(Cl)c1)C(=O)OCC(C)C` (stereo not drawn) was run?
Answer: 19.8

Question: And the Weight change (Mus musculus [6])?
Answer: 1.3

Question: And the Range (L1210 [16])?
Answer: 18

Question: What about the Average weight (Mus musculus [7]) of the same compound?
Answer: 21.4

Question: And the ILS at 80 mg/kg (L1210 [8])?
Answer: 111%

Question: What about the Weight change (Mus musculus [10]) of the same compound?
Answer: 0.1

Question: What about the T/C (L1210 [17]) of the same compound?
Answer: 9

Question: What about the ILS at 40 mg/kg (L1210 [13]) of the same compound?
Answer: 44%

Question: And the Range (L1210 [18])?
Answer: 23

Question: And the T/C (L1210 [14])?
Answer: 9

Question: `CCCCCCCCOC(=O)CCC(NC(=O)c1ccc(N(C)Cc2cnc3nc(N)nc(N)c3n2)cc1)C(=O)OCCCCCCCC` (stereo not drawn) was tested. Which ILS at 7.5 mg/kg (L1210 [19]) did it give?
Answer: 44%

Question: And the Average weight (Mus musculus [20])?
Answer: 25.2

Question: What about the Range (L1210 [21]) of the same compound?
Answer: 18

Question: What about the ILS at 15 mg/kg (L1210 [22]) of the same compound?
Answer: 66%

Question: And the Weight change (Mus musculus [23])?
Answer: 0.4

Question: What about the Range (L1210 [24]) of the same compound?
Answer: 14

Question: What about the Weight change (Mus musculus [25]) of the same compound?
Answer: 0.8

Question: And the Average weight (Mus musculus [26])?
Answer: 26.4

Question: Which T/C (L1210 [27]) does the source give for `CCCCOC(=O)CCC(NC(=O)c1cc(Cl)c(N(C)Cc2cnc3nc(N)nc(N)c3n2)c(Cl)c1)C(=O)OCCCC` (stereo not drawn) here?
Answer: 11

Question: What about the Weight change (Mus musculus [28]) of the same compound?
Answer: 1

Question: What about the Average weight (Mus musculus [29]) of the same compound?
Answer: 27.8

Question: What about the ILS at 90 mg/kg (L1210 [30]) of the same compound?
Answer: 82%

Question: What about the Weight change (Mus musculus [31]) of the same compound?
Answer: 3.8

Question: What about the ILS at 45 mg/kg (L1210 [32]) of the same compound?
Answer: 64%

Question: And the Range (L1210 [33])?
Answer: 24

Question: And the T/C (L1210 [34])?
Answer: 11

Question: What about the Range (L1210 [35]) of the same compound?
Answer: 19

Question: And the Average weight (Mus musculus [36])?
Answer: 25

Question: Which results are given for `CCCOC(=O)CCC(NC(=O)c1ccc(N(C)Cc2cnc3nc(N)nc(N)c3n2)cc1)C(=O)OCCC` (stereo not drawn)?
Answer: Weight change (Mus musculus [37]): 0.3; ILS at 20 mg/kg (L1210 [38]): 44%; T/C (L1210 [39]): 13; Average weight (Mus musculus [7]): 21.1; Range (L1210 [40]): 17; T/C (L1210 [41]): 19; Range (L1210 [42]): 16; Average weight (Mus musculus [12]): 21.4; Weight change (Mus musculus [43]): 2.1; ILS at 40 mg/kg (L1210 [44]): 100%
